From ChEMBL document CHEMBL1127964, “N-linked analogs of retinoid O-glucuronides: potential cancer chemopreventive/chemotherapeutic agents” (Bioorg Med Chem Lett, 1994)

Tests used:
[1] = molecular target: T1, Retinoic acid receptor gamma (Homo sapiens, UniProt P13631); assay: Inhibition of [3H]RA binding to Retinoic acid receptor RAR gamma
T1 sequence (P13631 whole entry): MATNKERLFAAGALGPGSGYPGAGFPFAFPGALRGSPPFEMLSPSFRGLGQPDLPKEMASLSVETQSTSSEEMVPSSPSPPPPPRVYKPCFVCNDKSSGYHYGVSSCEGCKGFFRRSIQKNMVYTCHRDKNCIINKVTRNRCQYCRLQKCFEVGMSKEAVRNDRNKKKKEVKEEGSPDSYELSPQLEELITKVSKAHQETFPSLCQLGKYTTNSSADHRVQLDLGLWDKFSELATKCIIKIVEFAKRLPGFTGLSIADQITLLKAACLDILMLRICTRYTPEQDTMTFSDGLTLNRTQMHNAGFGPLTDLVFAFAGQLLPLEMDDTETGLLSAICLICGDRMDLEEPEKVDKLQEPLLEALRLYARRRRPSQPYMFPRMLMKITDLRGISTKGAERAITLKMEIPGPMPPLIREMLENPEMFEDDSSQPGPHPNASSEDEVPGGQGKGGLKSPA

[2] = species on record: Rattus norvegicus; assay: Antitumor activity against DMBA-induced mammary tumors in rats; type: functional
[3] = molecular target: T1, Retinoic acid receptor gamma; assay: Inhibition of [3H]RA to binding Retinoic acid receptor RAR gamma

| Ki [1] | Ki [3] | SMILES | Tumor [2] | Tumor incidence [2] | Tumor latency [2] |
| --- | --- | --- | --- | --- | --- |
| 280 nM |  | CC1=C(/C=C/C(C)=C/C=C/C(C)=C/C(=O)NC2OC(C(=O)O)C(O)C(O)C2O)C(C)(C)CCC1 (stereo unspecified) | 0.83 number | 50% | 64 days |
|  | 710 nM | CC1=C(/C=C/C(C)=C/C=C/C(C)=C/C(=O)NC2OC(CO)C(O)C(O)C2O)C(C)(C)CCC1 (stereo unspecified) | 0.92 number | 58% | 64 days |
|  |  | CC1=C(/C=C/C(C)=C/C=C/C(C)=C/C(=O)O)C(C)(C)CCC1 [TRETINOIN] | 1.17 number | 83% | 49 days |
